Data taken from patent US10519138B2, “Modulators of SOCE, compositions, and uses thereof” (Università degli Studi del Piemonte Orientale “Amedeo …, priority 2016, dated 2019).
“Also recorded” adds a separate entry of the source.

Experiments:
[1] = tested on: Store Operated Calcium Entry (SOCE) in BV-2 cells; assay: Fluo-4 fluorimetric assay of tBHQ-induced store operated calcium entry in BV-2 cells; format: cell-based, mouse
Description: (A) BV-2 cells were plated in poly-d-lysine coated 24-well plate and incubated overnight. After 24 hours, cells were loaded with 2 μM Fluo-4 and placed in an extracellular solution containing 0 mM Ca^2+. Stores were depleted with 50 μM tBHQ and calcium influx was stimulated by the addition of 2 mM Ca^2+ alone (Ctrl), or in conbination with: compound with no activity (NM-3A), and compounds that positively (4-(1-(4-(3,5-bis(trifluoromethyl)-1H-pyrazol-1-yl)phenyl)-1H-1,2,3-triazol-4-yl)benzoic acid) and negatively (3-(1-(4-(4-(ethoxycarbonyl)-5-(trifluoromethyl)-1H-pyrazol-1-yl)phenyl)-1H-1,2,3-triazol-4-yl)benzoic acid) regulate SOCE. Calcium responses are expressed as changes in fluorescence intensity before and after the addition of selected modulators. (B) BV-2 cells were assayed for a calcium response to different concentrations of 3-(1-(4-(4-(ethoxycarbonyl)-5-(trifluoromethyl)-1H-pyrazol-1-yl)phenyl)-1H-1,2,3-triazol-4-yl)benzoic acid and 4-(1-(4-(3,5-bis(trifluoromethyl)-1H-pyrazol-1-yl)phenyl)-1H-1,2,3-triazol-4-yl)benzoic acid (0.1-0.3-1-3-10-30-100 μM) using Fluo-4 fluorimetric assay. Concentration-response curves represent the AUC % of both compounds as compared to positive control.
Immortalized primary mouse microglial BV-2 cells were obtained from ATCC (ATCC® CRL-2540™, Rockville, Md., USA) and were cultured in Dulbecco's Modified Eagle's Medium (DMEM; Sigma-Aldrich, Italy), supplemented with 10% heat-inactivated FBS (Gibco, Italy), 1-glutamine 50 mg/mL (Sigma-Aldrich, Italy), penicillin 10 U/mL and streptomycin […] (Sigma-Aldrich, Italy) at 37° C., under a 5% CO2 humidified atmosphere. For experiments, the cells were plated 2×10^4 per ml in 24 well plates) or onto glass coverslips at concentrations of 4×10^4 per mL (24 mm diame-ter coverslips in 6 well plates).
BV-2 cells were loaded with 5 μM Fluo-4 AM in presence of 0.02% of Pluronic-127 (both from Life Technologies, Italy) and 10 μM sulfinpyrazone in Krebs-Ringer buffer (KRB, 135 mM NaCl, 5 mM KCl, 0.4 mM KH2PO4, 1 mM MgSO4, 5.5 mM glucose, 20 mM HEPES, pH 7.4) containing 2 mM CaCl2 (30 min, room temperature). Subsequently, cells were washed and incubated with KRB for other 30 min to allow de-esterification of Fluo-4 AM. Experiments were carried out prior to and during exposure of the cells to the Ca^2+-free solution. In the absence of Ca^2+, the intracellular Ca^2+ stores were depleted by 2,5-t-butylhydroquinone (tBHQ, 50 μM; Sigma-Aldrich, Italy), a SERCA poison, and then calcium 2 mM was re-added to the extracellular solution. Fluorescence is then monitored sequentially for a second in each well for 600 seconds with excitation at 494 nm and an emission wavelength at 516 nm on the V3 Victor plate-reader (Perkin Elmer), generating time-curves for each well. Data were analysed using Microsoft Excel and GraphPad Prism.
The percentage of SOCE inhibition for each compound was determined based on value of tBHQ-induced calcium influx into BV-2 cells (Table 2).

[2] = tested on: Store Operated Calcium Entry (SOCE) in Jurkat cells; assay: Fura-2 single-cell Ca2+ measurement of tBHQ-induced SOCE in Jurkat cells; format: cell-based, human; conditions: Homo sapiens, SOCE modulation based on tBHQ-induced calcium influx
Description: Immortalized line of human T lymphocyte Jurkat cells were achieved from ATCC (ATCC® TIB-152™, Rockville, Md., USA) and were cultured in Roswell Park Memorial Institute Medium (RPMI 1640; Sigma-Aldrich, Italy), supplemented with 10% heat-inactivated FBS (Gibco, Italy), 1-glutamine 50 mg/mL (Sigma-Aldrich, Italy), penicillin 10 U/mL and streptomycin […] (Sigma-Aldrich, Italy) at 37° C., under a 5% CO2 humidified atmosphere. For experiments, the cells were plated onto glass coverslips at concentrations of 6×10^4 per mL (24 mm diameter coverslips in 6 well plates).
Compounds were also tested on Jurkat cells in single-cell analysis using Fura-2 AM on cover-slips. Jurkat cells were loaded with 5 μM Fura-2 AM in presence of 0.02% of Pluronic-127 (both from Life Technologies, Italy) and 1 μM sulfinpyrazone in Krebs-Ringer buffer (KRB, 135 mM NaCl, 5 mM KCl, 0.4 mM KH2PO4, 1 mM MgSO4, 5.5 mM glucose, 20 mM HEPES, pH 7.4) containing 2 mM CaCl2 (30 min, room temperature). Afterwards, cells were washed and incubated with KRB for other 30 min to allow de-esterification of Fura-2AM. To measure store operated calcium entry, changes in cytosolic Ca^2+ were monitored upon depletion of the intracellular Ca^2+ stores. Experiments were carried out prior to and during exposure of the cells to the Ca^2+-free solution. In the absence of Ca^2+, the intracellular Ca^2+ stores were depleted by inhibition of the vesicular Ca^2+ pump by 2,5-t-butylhydroquinone (tBHQ, 50 μM; Sigma-Aldrich, Italy). Re-addition of 2 mM Ca^2+ allowed assessing the SOCE. During the experiments the cover-slips were mounted into acquisition chamber and placed on the stage of a Leica DMI6000 epi-fluorescent microscope equipped with S Fluor ×40/1.3 objective. Fura-2 was excited by alternate 340 and 380 nm using a Polychrome IV mono-chromator (Till Photon-ics, Germany) and the probe emission light was filtered through 520/20 band-pass filter and collected by a cooled CCD camera (Hamamatsu, Japan). The fluorescence signals were acquired and processed using MetaFluor software (Molecular Device, Sun-Nyvale, C A, USA). To quantify the differences in the amplitudes of Ca^2+ transients the ratio values were normalized using the formula ΔF/F0 (referred to as normalized Fura-2 ratio, “Norm. Fura ratio”). The percentage of SOCE modulation for each of 15 compounds was determined based on value of tBHQ-induced calcium influx into Jurkat cells. Data were analysed using Microsoft Excel and GraphPad Prism.

STIM1 mutated proteins = assay: SOCE in HEK cells overexpressing wild-type or mutated STIM1 (Fura2-AM single cell analysis); format: cell-based, human; conditions: 10 μM
Description: (§1) SOCE induced by tBHQ in wilde-type HEK cells or HEK cells overexpressing the indicated STIM1 (A) or Orai1 (B) proteins. Average traces of approx. 600 cells from 20 coverslips performed on 4 separate days for each condition.
(§2) 3-(1-(4-(4-(ethoxycarbonyl)-5-(trifluoromethyl)-1H-pyrazol-1-yl)phenyl)-1H-1,2,3-triazol-4-yl)benzoic acid 10 μM impairs SOCE both in Wild-type and STIM1 (A) or Orai1 (B) mutated cells.
(§3) HEK STIM1 c.326A>G p.H109R (A) and HEK Orai1 c.734C>T p.P245L (B) cells were assayed for a calcium response to different concentrations of 3-(1-(4-(4-(ethoxycarbonyl)-5-(trifluoromethyl)-1H-pyrazol-1-yl)phenyl)-1H-1,2,3-triazol-4-yl)benzoic acid (1-3-10-30-100 μM) using Fura2-AM single cell analysis. Concentration-response curves represent the AUC % of 3-(1-(4-(4-(ethoxycarbonyl)-5-(trifluoromethyl)-1H-pyrazol-1-yl)phenyl)-1H-1,2,3-triazol-4-yl)benzoic acid.
(§4) Human embryonic kidney HEK cells were obtained from ATCC (ATCC® CRL-1573™, Rockville, Md., USA) and were cultured in Dulbecco's Modified Eagle's Medium (DMEM; Sigma-Aldrich, Italy), supplemented with 10% heat-inactivated FBS (Gibco, Italy), 1-glutamine 50 mg/mL (Sigma-Aldrich, Italy), penicillin 10 U/mL and streptomycin […] (Sigma-Aldrich, Italy) at 37° C., under a 5% CO2 humidified atmosphere. […]

Orai1 mutated proteins = assay: SOCE in HEK cells overexpressing wild-type or mutated Orai1 (Fura2-AM single cell analysis); format: cell-based, human; conditions: 10 μM
Description: as §1, §2, §3, §4

**Q.** With `CCOC(=O)c1cnn(-c2ccc(-n3cc(-c4cccc(C(=O)O)c4)nn3)cc2)c1C(F)(F)F` [3-(1-(4-(4-(ethoxycarbonyl)-5-(trifluoromethyl)-1H-pyrazol-1-yl)phenyl)-1H-1,2,3-triazol-4-yl)benzoic acid] as the molecule, how does the “Regulation of SOCE (calcium response, representative traces FIG. 2A)” value ([1]; Fluo-4, 50 μM tBHQ, 2 mM Ca2+ re-addition) read?
**A.** The value was “negatively”.

**Q.** What about the inhibition at 10 µM ([1]; Mus musculus, 10 μM, SOCE inhibition based on tBHQ-induced calcium influx) of the same molecule?
**A.** The inhibition at 10 µM was 45.3%.

**Q.** What about the inhibition at 10 µM [2] of the same molecule?
**A.** Its inhibition at 10 µM is 70.4%.

**Q.** And the “Effect on SOCE in wild-type and STIM1 mutated cells (FIG. 4A)” value (STIM1 mutated proteins)?
**A.** The value was “impairs SOCE; also recorded: able to revert the over-activation”.

**Q.** What about the “Effect on SOCE in wild-type and Orai1 mutated cells (FIG. 4B)” value (Orai1 mutated proteins) of the same molecule?
**A.** The value was “impairs SOCE; also recorded: able to revert the over-activation”.
